Measurements reported in patent publication US9555013B2, “Modulation of fibroblast activity” (The University of Leicester, priority 2008, dated 2017).
“Also recorded” adds a separate entry of the source.

What was measured:
Human dermal fibroblasts [1] = experiment: Tethered (anchored) collagen gel model of wounded dermis; type: cell-based; settings: 10 μM, 4 days incubation; for collagen I staining in fibroblasts released from collagen gels: FIG. 8B; for smooth muscle alpha actin staining in fibroblasts released from collagen gels: FIG. 8D
Method: 50% collagen I gels were seeded with 30,000 cells per ml in the absence or presence of a β2-AR agonist or a β2-AR antagonist.

dermal fibroblasts = experiment: Floating collagen gel contraction assay; type: cell-based; settings: FIG. 2; 10 nM
Method: The individual solutions were prepared and cooled to 4° C. before mixing to prevent premature gelation. The final solution contained 40% (v/v) Vitrogen, 20% DMEM, 30% DMEM with Hepes buffer, and 10% calf serum. Cells were incubated with the appropriate drug concentration for 30 minutes at 37° C. and added to the collagen gel mix just before gel casting at the concentration of 30,000 per ml. The lattices were cast, with 1.7 ml of the final solution per dish, in 35 mm bacteriologic dishes (Falcon Labware, BD Biosciences), to which fibroblasts poorly adhere. The mixture gelled within 30 minutes upon incubation at 37° C. in a humidified atmosphere of 95 percent air and 5 percent CO2.
To determine the effect of β2-AR antagonists on floating gel contraction (as shown in FIG. 2), lattices were detached from the sides of the dishes after 2 hours by rimming the edges of the dishes using a sterile […] and gently shaking the dishes until the gels slid freely. Lattice retraction was measured every day by placing the dishes over a flat ruler on a black background. To determine the effect of β2-AR agonists and antagonists on proliferation of cells in a model of the wound dermis, the gels remained anchored to the side of the dish (as shown in FIG. 8).

Human dermal fibroblasts [2] = experiment: Secretion of TGF-β1, TGF-β2, TGF-β3 from dermal fibroblasts (ELISA); type: cell-based; settings: FIG. 9
Method: (§1) Human dermal fibroblasts (FIGS. 9 and 15) or human neutrophils (VEGF only) (FIG. 15) were seeded into 6-well plates and grown to 60% confluence in FM. […] The supernatants were prepared and assayed using ELISA kits for TGF-β1, TGF-β2, 15 TGF-β3 and VEGF (R & D systems) following the Manufacturer's instructions.

[3] = test system: full-thickness 6 mm excisional wounds; experiment: Murine excisional wound model with immunohistochemistry; settings: for murine wound closure (wound area): FIG. 3, 0.1% in 100 μl hydroactive gel, topical, daily
Method: FVB/NJ (β2-AR+/+) mice, were purchased from The Jackson laboratory (Bar Harbor, Me.). All animals used in the study were females between 8-12 weeks of age. β2-AR+/+ mice were anaesthetized by intraperitoneal injection of ketamine (100 mg/kg)/xylazine (10 mg/kg) (Pfizer). Back skin was shaved and two circular full-thickness 6 mm excisional wounds were created 2 cm apart, in the centre of the back, using a sterile 6 mm biopsy punch (SMS Inc.). […] Each mouse was housed separately after wounding until wound harvest. Wounds were left uncovered and digitally photographed, daily, to determine wound contraction over time. Wounds were harvested at days 3 and 5 post-wounding by carefully applying an 8 mm punch (SMS Inc.) around the original wound site and lightly pressing to form an outline on the skin. Scissors were then used to remove the wound site without damaging the delicate wound bed.
For histological analysis the wounds were fixed in an IHC zinc fixative (BD Biosciences). The zinc-fixed biopsies were bisected to ensure that sections were taken from the centre of the wound, dehydrated through an ethanol xylene series, and embedded in paraffin.
Specimens that were damaged in the histological process or otherwise non-interpretable were excluded from the study. Wound closure was quantified by measuring the wound area of each wound from the digital pictures taken every day with Image J, National Institutes of Health website. Images of the smooth muscle-alpha actin (SMA)-stained wounds were captured at 2× magnification on a Nikon SMZ-U upright microscope with Nikon ACT-1 software (as shown in FIG. 4). Image J was used to determine the area of SMA staining in each wound to calculate the mean area of SMA staining in each group (as shown in FIG. 5). Images of the collagen III stained wounds were captured at 20× magnification on a Nikon Eclipse 2000U inverted microscope with NIS-Elements software (as shown in FIG. 6). The intensity of collagen III staining was graded on a scale of 0-6, no staining receiving a score of 0 and the darkest staining receiving a score of 6 (as shown in FIG. 7). The staining of each wound was scored in a double-blind manner and the mean staining intensity was calculated for each group.

Human dermal fibroblasts [4] = experiment: Secretion of VEGF from dermal fibroblasts (ELISA); type: cell-based; settings: FIG. 15; after 48 hours; vs control
Method: as §1

human neutrophils = experiment: Secretion of VEGF from neutrophils (ELISA); type: cell-based; settings: FIG. 15; after 48 hours; vs control
Method: as §1

| SMILES | collagen I staining in fibroblasts released from collagen gels (Human dermal fibroblasts [1]) | smooth muscle alpha actin staining in fibroblasts released from collagen gels (Human dermal fibroblasts [1]) | increase in amount of TGF-β3 secreted (Human dermal fibroblasts [2]; 10 μM, 24 hours, vs control) | murine wound closure (wound area) [3] | amount of VEGF secreted from human dermal fibroblasts (Human dermal fibroblasts [4]) | amount of VEGF secreted from human neutrophils (human neutrophils) | also measured |
| --- | --- | --- | --- | --- | --- | --- | --- |
| Cc1ccc(OCC(O)C(C)NC(C)C)c2c1CCC2 (stereo not drawn) [ICI 118,551] | increases | increases | no effect | enhances; also recorded: acceleration |  |  | rigidity of human dermal fibroblast-seeded collagen gels (Human dermal fibroblasts [1]; FIG. 8A): increases; dermal fibroblast-mediated floating collagen gel contraction (dermal fibroblasts): enhance; increase in TGF-β1 levels (Human dermal fibroblasts [2]; 10 μM, 24 hours, vs control): 3 fold; increase in TGFβ2 levels (Human dermal fibroblasts [2]; 10 μM, after 6 hours, vs control): 1.6 fold; increase in TGF-β2 levels (Human dermal fibroblasts [2]; time given as 24 hours, not stated): 1.6 fold; smooth muscle α-actin staining / expressing cells in the wound dermis ([3]; FIGS. 4 and 5, 5 days post wounding, 0.1% topical daily, vs controls): increase; collagen III deposition (staining) in the wound dermis ([3]; FIGS. 6 and 7, 5 days post wounding, 0.1% topical daily, vs controls): increase |
| COc1ccc(CC(C)NCC(O)c2ccc(O)c(NC=O)c2)cc1 (stereo not drawn) [formotorol] |  |  |  |  | decrease |  |  |
| CC(C)(C)NCC(O)c1ccc(O)c(CO)c1 (stereo not drawn) [salbutamol] | decreases | decreases | 5 fold | delayed | decrease | decrease | human dermal fibroblast proliferation in collagen gels (Human dermal fibroblasts [1]; FIG. 8C): decreases; decrease in amount of TGF-β1 secreted (Human dermal fibroblasts [2]; 10 μM, 24 hours, vs control): 4 fold; decrease in amount of secreted TGFβ1 (Human dermal fibroblasts [2]; 10 μM, after 24 hours, vs control): 74% |
| CC(C)(C)NC[C@H](O)COc1nsnc1N1CCOCC1 [timolol] |  |  |  |  | increase | increase |  |
| CC(C)NCC(O)c1ccc(O)c(O)c1 (stereo not drawn) [isoproterenol] |  |  |  |  | decrease | decrease |  |
| OCc1cc(C(O)CNCCCCCCOCCCCc2ccccc2)ccc1O (stereo not drawn) [salmeterol] |  |  |  |  | decrease | decrease |  |
